Measured values as given in patent US8101616B2, “Pyridine and pyrimidine derivatives as inhibitors of histone deacetylase” (Janssen Pharmaceutica N.V., priority 2006, dated 2012).
In brackets after ≈: the same amount, converted by molar mass. Like-named read-outs stand apart in the source and are kept apart here.

Tests used:
[1] = target: histone deacetylase (HeLa nuclear extracts); test: In vitro assay for inhibition of histone deacetylase with fluorescent-labelled substrate (C.1); format: biochemical; conditions: Fluor de Lys substrate
Description: The in vitro assay for inhibition of histone deacetylase (see example C.1) measures the inhibition of HDAC enzymatic activity obtained with the compounds of formula (I).
The HDAC Fluorescent Activity Assay/Drug Discovery Kit of Biomol (cat. No: AK-500-0001) was used. The HDAC Fluorescent Activity Assay is based on the Fluor de Lys (Fluorogenic Histone deAcetylase Lysyl) substrate and developer combination. The Fluor de Lys substrate, comprises an acetylated lysine side chain. Deacetylation of the substrate sensitizes the substrate so that, in the second step, treatment with the Fluor de Lys developer produces a fluorophore.
HeLa nuclear extracts (supplier: Biomol) were incubated at 60 μg/ml with 75 μM of substrate. The Fluor de Lys substrate was added in a buffer containing 25 mM Tris, 137 mM NaCl, 2.7 mM KCl and 1 mM MgCl2.6H2O at pH 7.4. After 30 min, 1 volume of the developer was added. The fluorophore was excited with 355 nm light and the emitted light (450 nm) was be detected on a fluorometric plate reader.
For each experiment, controls (containing HeLa nuclear extract and buffer), a blank incubation (containing buffer but no HeLa nuclear extract) and samples (containing compound dissolved in DMSO and further diluted in buffer and HeLa nuclear extract) were run in parallel. In first instance, compounds were tested at a concentration of 10^−5M. […] All sample were tested 4 times. In each test the blank value was substracted from both the control and the sample values. The control sample represented 100% of substrate deactylation. For each sample the fluorescence was expressed as a percentage of the mean value of the controls. […] Herein the effects of test compounds are expressed as pIC50 (the negative log value of the IC50-value) (see Table F-2).

[2] = system: A2780 ovarian carcinoma cells; test: Antiproliferative activity on A2780 cells, MTT (C.2); format: cell-based; conditions: Homo sapiens, 96 h, four days of incubation, read-out: Cellular activity pIC50 C.2 (converted)
Method: Cellular activity of the compounds of formula (I) was determined on A2780 tumour cells using a […] assay for cell toxicity or survival (Mosmann Tim, Journal of Immunological Methods 65: 55-63, 1983) (see example C.2).
All compounds tested were dissolved in DMSO and further dilutions were made in culture medium. Final DMSO concentrations never exceeded 0.1% (v/v) in cell proliferation assays. Controls contained A2780 cells and DMSO without compound and blanks contained DMSO but no cells. MTT was dissolved at 5 mg/ml in PBS. A glycine buffer comprised of 0.1 M glycine and 0.1 M NaCl buffered to pH 10.5 with NaOH (1 N) was prepared (all reagents were from Merck).
The human A2780 ovarian carcinoma cells (a kind gift from Dr. T. C. Hamilton [Fox Chase Cancer Centre, Pennsylvania, USA]) were cultured in RPMI 1640 medium supplemented with 2 mM L-glutamine, 50 μg/ml gentamicin and 10% fetal calf serum. Cells were routinely kept as monolayer cultures at 37° C. in a humidified 5% CO2 atmosphere. Cells were passaged once a week using a trypsin/EDTA solution at a split ratio of 1:40. All media and supplements were obtained from Life Technologies. Cells were free of mycoplasma contamination as determined using the Gen-Probe Mycoplasma Tissue Culture kit (supplier: BioMérieux).
Cells were seeded in NUNC™ 96-well culture plates (Supplier: Life Technologies) and allowed to adhere to the plastic overnight. Densities used for plating were 1500 cells per well in a total volume of 200 μl medium. After cell adhesion to the plates, medium was changed and drugs and/or solvents were added to a final volume of 200 μl. Following four days of incubation, medium was replaced by 200 μl fresh medium and cell density and viability was assessed using an MTT-based assay. […] For each sample, the mean value for cell growth (in absorbance units) was expressed as a percentage of the mean value for cell growth of the control. […] Herein the effects of test compounds are expressed as pIC50 (the negative log value of the IC50-value) (see Table F-2).

[3] = Solubility at pH 2.3, chemiluminescent nitrogen detector (C.3.b); format: physicochemical
Method: The solubility of a compound measures the ability of a compound to stay in solution. In the first method, the ability of a compound to stay in aqueous solution upon dilution (see example C.3.a) is measured. DMSO-stock solutions are diluted with a single aqueous buffer solvent in different consecutive steps. In this method (C.3.a), mixtures are then scanned in the BD Gentest Solubility Scanner for the occurrence of precipitation. In a second method the solubility of a compound at different pH's can be measured with the use of a chemiluminescent nitrogen detector (see example C.3.b).
The solubility of a compound, at pH 2.3, can also be measured with the use of a chemiluminescent nitrogen detector (see Table F-2).

Structure (SMILES) | Enzymatic activity pIC50 C.1 [1] | IC50 [2] [nM] | solubility [3] [µg/mL] | % metabolism (human, 15 min, 5 μM) [%] | % metabolism (15 min incubation with active microsomes, reference compounds) [%]
Nc1ccccc1NC(=O)c1cnc(N2CCN(C(/C=C/c3ccccc3)CO)CC2)nc1 (stereo not drawn) [Compound 3] | 4.8 | 200 | 3700 (≈ 8.32 mM) |  | 
Nc1ccccc1NC(=O)c1cnc(N2CCN(C(/C=C/c3cccc(F)c3)CO)CC2)nc1 (stereo not drawn) [Compound 2] | <6 | 251 |  |  | 
CCCO [propanol] |  |  |  |  | 25

The next lines start with results.

Enzymatic activity pIC50 C.1 [1] | IC50 [2] [nM] | solubility [3] [µg/mL] | % metabolism (human, 15 min, 5 μM) [%] | Structure (SMILES) | % metabolism (15 min incubation with active microsomes, reference compounds) [%]
<6 | 2510 |  |  | COCC(/C=C/c1ccc(F)cc1)N1CCN(c2ccc(C(=O)Nc3ccccc3N)cn2)CC1 (stereo not drawn) [Compound 1] | 
 |  |  | 45 | COc1cc(N)c(Cl)cc1C(=O)NC1CCN(CCCOc2ccc(F)cc2)CC1OC (stereo not drawn) [Cisapride] | 
